Reference: the CheMixHub ionic liquid set

Experiment: xn = mol fraction of the nth substance listed

O=C([O-])C1=NN(c2ccc(S(=O)(=O)[O-])cc2)C(=O)C1N=Nc1ccc(S(=O)(=O)[O-])cc1.[Na+].[Na+].[Na+] (stereo not given) + CCCC[N+](CCCC)(CCCC)Cc1ccccc1.[Cl-] + O
electrical conductivity [S/m], 101.3 kPa, frequency 0.001 MHz
Conditions | 298.15 K | 308.15 K | 318.15 K
x1 = 0.0001802, x2 = 1.802e-05 | 0.11 | 0.131 | 0.158
x1 = 0.0001803, x2 = 5.405e-05 | 0.119 | 0.142 | 0.182
x1 = 0.0001804, x2 = 9.008e-05 | 0.151 | 0.168 | 0.196
x1 = 0.0004504, x2 = 1.801e-05 | 0.176 | 0.226 | 0.28
x1 = 0.0004507, x2 = 5.403e-05 | 0.201 | 0.248 | 0.328
x1 = 0.000451, x2 = 9.005e-05 | 0.263 | 0.301 | 0.353
x1 = 0.0007205, x2 = 1.801e-05 | 0.245 | 0.299 | 0.384
x1 = 0.0007209, x2 = 5.402e-05 | 0.269 | 0.342 | 0.452
x1 = 0.0007213, x2 = 9.003e-05 | 0.369 | 0.419 | 0.478
x1 = 0.0009904, x2 = 1.8e-05 | 0.319 | 0.38 | 0.493
x1 = 0.000991, x2 = 5.4e-05 | 0.353 | 0.438 | 0.577
x1 = 0.0009916, x2 = 9e-05 | 0.469 | 0.524 | 0.603
x1 = 0.00126, x2 = 1.8e-05 | 0.398 | 0.476 | 0.609
x1 = 0.001261, x2 = 5.399e-05 | 0.435 | 0.546 | 0.716
x1 = 0.001262, x2 = 8.998e-05 | 0.582 | 0.654 | 0.763
x1 = 0.00153, x2 = 1.799e-05 | 0.472 | 0.571 | 0.735
x1 = 0.001531, x2 = 5.397e-05 | 0.511 | 0.651 | 0.852
x1 = 0.001532, x2 = 8.995e-05 | 0.702 | 0.78 | 0.902

viscosity [mPa·s], 101.3 kPa
Conditions | 298.15 K | 308.15 K | 318.15 K
x1 = 0.0001802, x2 = 1.802e-05 | 0.933 | 0.799 | 0.663
x1 = 0.0001803, x2 = 5.405e-05 | 0.951 | 0.818 | 0.68
x1 = 0.0001804, x2 = 9.008e-05 | 0.971 | 0.836 | 0.699
x1 = 0.0004504, x2 = 1.801e-05 | 0.956 | 0.818 | 0.68
x1 = 0.0004507, x2 = 5.403e-05 | 0.975 | 0.839 | 0.698
x1 = 0.000451, x2 = 9.005e-05 | 0.996 | 0.858 | 0.719
x1 = 0.0007205, x2 = 1.801e-05 | 0.975 | 0.836 | 0.695
x1 = 0.0007209, x2 = 5.402e-05 | 0.995 | 0.858 | 0.715
x1 = 0.0007213, x2 = 9.003e-05 | 1.019 | 0.878 | 0.738
x1 = 0.0009904, x2 = 1.8e-05 | 0.994 | 0.853 | 0.711
x1 = 0.000991, x2 = 5.4e-05 | 1.015 | 0.877 | 0.733
x1 = 0.0009916, x2 = 9e-05 | 1.039 | 0.897 | 0.756
x1 = 0.00126, x2 = 1.8e-05 | 1.011 | 0.869 | 0.725
x1 = 0.001261, x2 = 5.399e-05 | 1.034 | 0.895 | 0.749
x1 = 0.001262, x2 = 8.998e-05 | 1.06 | 0.917 | 0.774
x1 = 0.00153, x2 = 1.799e-05 | 1.028 | 0.884 | 0.738
x1 = 0.001531, x2 = 5.397e-05 | 1.052 | 0.913 | 0.764
x1 = 0.001532, x2 = 8.995e-05 | 1.081 | 0.938 | 0.792

CC[n+]1ccn(C)c1.F[B-](F)(F)F + CO
viscosity [mPa·s], 101 kPa
Conditions | x1 = 0.0999 | x1 = 0.2 | x1 = 0.3 | x1 = 0.3996 | x1 = 0.5005 | x1 = 0.5973 | x1 = 0.7011 | x1 = 0.8013 | x1 = 0.8995 | x1 = 1
303.15 K | 0.945 | 1.6 | 2.45 | 3.62 | 5.25 | 7.32 | 10.4 | 14.5 | 20 | 28
313.15 K | 0.822 | 1.36 | 2.08 | 3.03 | 4.34 | 5.96 | 8.24 | 11.2 | 15.1 | 20.4
323.15 K | 0.718 | 1.19 | 1.79 | 2.6 | 3.67 | 4.96 | 6.82 | 8.97 | 11.7 | 15.3
333.15 K | 0.636 | 1.06 | 1.6 | 2.3 | 3.24 | 4.25 | 5.74 | 7.47 | 9.43 | 12.1

CC(=O)Nc1ccc(O)cc1 + O + CCCC[n+]1ccn(C)c1.[Cl-]
101 kPa, frequency 0.0003 MHz
Conditions | electrical conductivity [S/m]
293.15 K, x1 = 0.0005511, x3 = 5.07e-06 | 0.0028
293.15 K, x1 = 0.0005511, x3 = 8.5e-06 | 0.0044
293.15 K, x1 = 0.0005511, x3 = 1.194e-05 | 0.0061
293.15 K, x1 = 0.0005511, x3 = 1.61e-05 | 0.0081
293.15 K, x1 = 0.0005511, x3 = 1.954e-05 | 0.0096
293.15 K, x1 = 0.001084, x3 = 4.54e-06 | 0.0025
293.15 K, x1 = 0.001084, x3 = 7.63e-06 | 0.0038
293.15 K, x1 = 0.001084, x3 = 1.144e-05 | 0.0055
293.15 K, x1 = 0.001084, x3 = 1.471e-05 | 0.0067
293.15 K, x1 = 0.001084, x3 = 1.907e-05 | 0.0086
298.15 K, x1 = 0.0005511, x3 = 2.53e-06 | 0.0016
298.15 K, x1 = 0.0005511, x3 = 4.16e-06 | 0.0025
298.15 K, x1 = 0.0005511, x3 = 6.69e-06 | 0.0039
298.15 K, x1 = 0.0005511, x3 = 8.87e-06 | 0.005
298.15 K, x1 = 0.0005511, x3 = 1.122e-05 | 0.0062
298.15 K, x1 = 0.0005511, x3 = 1.285e-05 | 0.007
298.15 K, x1 = 0.0005511, x3 = 1.701e-05 | 0.009
298.15 K, x1 = 0.001084, x3 = 4.54e-06 | 0.0028
298.15 K, x1 = 0.001084, x3 = 8.36e-06 | 0.0046
298.15 K, x1 = 0.001084, x3 = 1.235e-05 | 0.0065
298.15 K, x1 = 0.001084, x3 = 1.962e-05 | 0.0099
303.15 K, x1 = 0.0005511, x3 = 3.44e-06 | 0.0022
303.15 K, x1 = 0.0005511, x3 = 5.79e-06 | 0.0035
303.15 K, x1 = 0.0005511, x3 = 9.23e-06 | 0.0054
303.15 K, x1 = 0.0005511, x3 = 1.737e-05 | 0.0097
303.15 K, x1 = 0.001084, x3 = 2.72e-06 | 0.0018
303.15 K, x1 = 0.001084, x3 = 1.217e-05 | 0.0067
303.15 K, x1 = 0.001084, x3 = 1.726e-05 | 0.0092
308.15 K, x1 = 0.0005511, x3 = 3.98e-06 | 0.0028
308.15 K, x1 = 0.0005511, x3 = 7.6e-06 | 0.0049
308.15 K, x1 = 0.0005511, x3 = 1.031e-05 | 0.0065
308.15 K, x1 = 0.001084, x3 = 4.18e-06 | 0.0028
308.15 K, x1 = 0.001084, x3 = 8.36e-06 | 0.005
308.15 K, x1 = 0.001084, x3 = 1.235e-05 | 0.0072
308.15 K, x1 = 0.001084, x3 = 1.689e-05 | 0.0097

CO + CCCC[n+]1ccn(C)c1.[Cl-]
Conditions | viscosity [mPa·s]
308.15 K, 101 kPa, x1 = 1 | 0.49

CC[n+]1ccn(C)c1.COP(=O)([O-])OC + O
101 kPa
Conditions | viscosity [mPa·s]
293.15 K, x2 = 0.198 | 292
298.15 K, x2 = 0.198 | 212
303.15 K, x2 = 0.198 | 157.4
318.15 K, x2 = 0.198 | 73.7
318.15 K, x2 = 0.399 | 52.73
318.15 K, x2 = 0.799 | 11.57
328.15 K, x2 = 0.399 | 35.56
333.15 K, x2 = 0.198 | 40.33

CC[n+]1ccn(C)c1.O=S(=O)([N-]S(=O)(=O)C(F)(F)F)C(F)(F)F + F[B-](F)(F)F.[Li+]
101 kPa, x1 = 1
Conditions | electrical conductivity [S/m]
288.15 K | 0.611
298.15 K | 0.883
333.15 K | 2.18
